Where two headings read alike, the source gives them in different places.
Legend:
Assay type in all cases: cell-based
Candida krusei ATCC 6258 = assay: Antifungal susceptibility testing, NCCLS M27-A2 broth microdilution (yeasts); conditions: Pichia kudriavzevii, ATCC6258, read-out: % of growth inhibition
Description: (§1) Cabanillasin activity was tested against different fungal human pathogens: ascomycetes yeasts (Candida albicans ATCC 90029, Candida Glabrata ATCC 90030, Candida krusei ATCC 6258 and Candida lusitaniae CBS 6936), basidiomycetes yeasts (Cryptococcus neoformans clinical strain), ascomycetes filamentous fungi (Aspergilus fumigatus clinical strain, Fusarium oxysporum clinical strain) and zygomycetes filamentous fungi (Rhizopus oryzae environemental strain) by the M38-A microdilution method with RPMI 1640 medium (RPMI 1640, MOPS 160 mM, glucose 18 g/L, pH 7) as recommended in the […]. The NCCLS M27-A2 broth microdilution method (NCCLS) was used when yeasts were tested.
(§2) Yeasts and filamentous inoculi were prepared on YPD medium (yeast extract 10 g/L, peptone 10 g/L and glucose 20 g/L) and Malt medium (malt extract 20 g/L) respectively. The densities of inoculi were adjusted by dilution in RPMI 1640 broth to a value ranged from 5.10^2 to 5.10^3 CFU/mL for yeasts isolates and 5.10^3 to 5.10^4 CFU/mL for filamentous fungi. Microdilution trays (96 U-bottom shaped) containing 190 µL fungal inoculum were added with 10 µL Cabanillasin solution (final concentration ranging from 50 to 0.098 mg/L for all fungi). After inoculation of the trays, all microdilution trays were incubated at 35°C in ambient air. The culture absorbance was measured at 600 nm, 24 h and 48 h after the beginning of the experiments for the yeasts and 48 h and 72 h after the beginning of the experiments for filamentous fungi and Cryptococcus neoformans. The activity results correspond to a percentage of growth inhibition ((1-Abs600 nm culture with Cabanillasin)/ Abs600 nm culture without Cabanillasin) x 100.
(§3) The IC50 value is the concentration at which inhibition of growth is equal to 50%. MICs for Candida species were determined at 24 h and 48 h and corresponded to 100% of growth inhibition. Amphotericin B was provided as standard (final concentration ranging from 16 to 0.03 mg/L for all fungi). Experiments were done in duplicate.

[1] = system: Candida albicans ATCC 90029; assay: as above; conditions: read-out: % of growth inhibition; for inhibition at 0.03 µg/mL: ATCC90029, 0.03 µg/mL; for inhibition at 0.06 µg/mL: ATCC90029, 0.06 µg/mL; for inhibition at 0.12 µg/mL: ATCC90029, 0.12 µg/mL; for inhibition at 0.25 µg/mL: ATCC90029, 0.25 µg/mL; for inhibition at 0.5 µg/mL: ATCC90029, 0.5 µg/mL; for inhibition at 1 µg/mL: ATCC90029, 1 µg/mL; for inhibition at 2 µg/mL: ATCC90029, 2 µg/mL; for inhibition at 4 µg/mL: ATCC90029, 4 µg/mL; for inhibition at 8 µg/mL: ATCC90029, 8 µg/mL; for inhibition at 16 µg/mL: ATCC90029, 16 µg/mL
Description: as §1, §2, §3

[2] = system: Cryptococcus neoformans clinical strain; assay: as above; conditions: read-out: % of growth inhibition
Description: as §1, §2, §3

[3] = system: Rhizopus oryzae environemental strain; assay: Antifungal susceptibility testing, M38-A microdilution method (filamentous fungi); conditions: Rhizopus arrhizus, read-out: % of growth inhibition
Description: as §1, §2, §3

[4] = system: Fusarium oxysporum clinical strain; assay: as above; conditions: read-out: % of growth inhibition
Description: as §1, §2, §3

C[C@@H]1[C@H](O)[C@@H](C)/C=C/C=C/C=C/C=C/C=C/C=C/C=C/[C@H](O[C@@H]2O[C@H](C)[C@@H](O)[C@H](N)[C@@H]2O)C[C@@H]2O[C@](O)(C[C@@H](O)C[C@@H](O)[C@H](O)CC[C@@H](O)C[C@@H](O)CC(=O)O[C@H]1C)C[C@H](O)[C@H]2C(=O)O [Amphotericin B, reference compound]
inhibition at 0.03 µg/mL (Candida krusei ATCC 6258; 24 h incubation): 0% | inhibition at 0.03 µg/mL (Candida krusei ATCC 6258; 48 h incubation): 25% | inhibition at 0.06 µg/mL (Candida krusei ATCC 6258; 24 h incubation): 48.4% | inhibition at 0.06 µg/mL (Candida krusei ATCC 6258; 48 h incubation): 48% | inhibition at 0.12 µg/mL (Candida krusei ATCC 6258; 24 h incubation): 100% | inhibition at 0.12 µg/mL (Candida krusei ATCC 6258; 48 h incubation): 76.7% | inhibition at 0.25 µg/mL (Candida krusei ATCC 6258; 24 h incubation): 100% | inhibition at 0.25 µg/mL (Candida krusei ATCC 6258; 48 h incubation): 100% | inhibition at 0.5 µg/mL (Candida krusei ATCC 6258; 24 h incubation): 100% | inhibition at 0.5 µg/mL (Candida krusei ATCC 6258; 48 h incubation): 100% | inhibition at 1 µg/mL (Candida krusei ATCC 6258; 24 h incubation): 100% | inhibition at 1 µg/mL (Candida krusei ATCC 6258; 48 h incubation): 100% | inhibition at 2 µg/mL (Candida krusei ATCC 6258; 24 h incubation): 100% | inhibition at 2 µg/mL (Candida krusei ATCC 6258; 48 h incubation): 100% | inhibition at 4 µg/mL (Candida krusei ATCC 6258; 24 h incubation): 100% | inhibition at 4 µg/mL (Candida krusei ATCC 6258; 48 h incubation): 100% | inhibition at 8 µg/mL (Candida krusei ATCC 6258; 24 h incubation): 100% | inhibition at 8 µg/mL (Candida krusei ATCC 6258; 48 h incubation): 100% | inhibition at 16 µg/mL (Candida krusei ATCC 6258; 24 h incubation): 100% | inhibition at 16 µg/mL (Candida krusei ATCC 6258; 48 h incubation): 100% | inhibition at 0.03 µg/mL ([1]; 24 h incubation): 30.3% | inhibition at 0.03 µg/mL ([1]; 48 h incubation): 17% | inhibition at 0.06 µg/mL ([1]; 24 h incubation): 56.7% | inhibition at 0.06 µg/mL ([1]; 48 h incubation): 32% | inhibition at 0.12 µg/mL ([1]; 24 h incubation): 95.2% | inhibition at 0.12 µg/mL ([1]; 48 h incubation): 70% | inhibition at 0.25 µg/mL ([1]; 24 h incubation): 100% | inhibition at 0.25 µg/mL ([1]; 48 h incubation): 100% | inhibition at 0.5 µg/mL ([1]; 24 h incubation): 100% | inhibition at 0.5 µg/mL ([1]; 48 h incubation): 100% | inhibition at 1 µg/mL ([1]; 24 h incubation): 100% | inhibition at 1 µg/mL ([1]; 48 h incubation): 100% | inhibition at 2 µg/mL ([1]; 24 h incubation): 100% | inhibition at 2 µg/mL ([1]; 48 h incubation): 100% | inhibition at 4 µg/mL ([1]; 24 h incubation): 100% | inhibition at 4 µg/mL ([1]; 48 h incubation): 100% | inhibition at 8 µg/mL ([1]; 24 h incubation): 100% | inhibition at 8 µg/mL ([1]; 48 h incubation): 100% | inhibition at 16 µg/mL ([1]; 24 h incubation): 100% | inhibition at 16 µg/mL ([1]; 48 h incubation): 100% | inhibition at 0.03 µg/mL ([2]; 48 h incubation): 17% | inhibition at 0.03 µg/mL ([2]; 72 h incubation): 0% | inhibition at 0.06 µg/mL ([2]; 48 h incubation): 32% | inhibition at 0.06 µg/mL ([2]; 72 h incubation): 5% | inhibition at 0.12 µg/mL ([2]; 48 h incubation): 70% | inhibition at 0.12 µg/mL ([2]; 72 h incubation): 44% | inhibition at 0.25 µg/mL ([2]; 48 h incubation): 100% | inhibition at 0.25 µg/mL ([2]; 72 h incubation): 81.5% | inhibition at 0.5 µg/mL ([2]; 48 h incubation): 100% | inhibition at 0.5 µg/mL ([2]; 72 h incubation): 100% | inhibition at 1 µg/mL ([2]; 48 h incubation): 100% | inhibition at 1 µg/mL ([2]; 72 h incubation): 100% | inhibition at 2 µg/mL ([2]; 48 h incubation): 100% | inhibition at 2 µg/mL ([2]; 72 h incubation): 100% | inhibition at 4 µg/mL ([2]; 48 h incubation): 100% | inhibition at 4 µg/mL ([2]; 72 h incubation): 100% | inhibition at 8 µg/mL ([2]; 48 h incubation): 100% | inhibition at 8 µg/mL ([2]; 72 h incubation): 100% | inhibition at 16 µg/mL ([2]; 48 h incubation): 100% | inhibition at 16 µg/mL ([2]; 72 h incubation): 100% | inhibition at 0.03 µg/mL ([3]; 48 h incubation): 26.7% | inhibition at 0.03 µg/mL ([3]; 72 h incubation): 0% | inhibition at 0.06 µg/mL ([3]; 48 h incubation): 35% | inhibition at 0.06 µg/mL ([3]; 72 h incubation): 0% | inhibition at 0.12 µg/mL ([3]; 48 h incubation): 22% | inhibition at 0.12 µg/mL ([3]; 72 h incubation): 0% | inhibition at 0.25 µg/mL ([3]; 48 h incubation): 43.9% | inhibition at 0.25 µg/mL ([3]; 72 h incubation): 12% | inhibition at 0.5 µg/mL ([3]; 48 h incubation): 47.4% | inhibition at 0.5 µg/mL ([3]; 72 h incubation): 62.1% | inhibition at 1 µg/mL ([3]; 48 h incubation): 92.2% | inhibition at 1 µg/mL ([3]; 72 h incubation): 66% | inhibition at 2 µg/mL ([3]; 48 h incubation): 100% | inhibition at 2 µg/mL ([3]; 72 h incubation): 77.4% | inhibition at 4 µg/mL ([3]; 48 h incubation): 100% | inhibition at 4 µg/mL ([3]; 72 h incubation): 100% | inhibition at 8 µg/mL ([3]; 48 h incubation): 100% | inhibition at 8 µg/mL ([3]; 72 h incubation): 100% | inhibition at 16 µg/mL ([3]; 48 h incubation): 100% | inhibition at 16 µg/mL ([3]; 72 h incubation): 100% | inhibition at 0.03 µg/mL ([4]; 48 h incubation): 14% | inhibition at 0.03 µg/mL ([4]; 72 h incubation): 0% | inhibition at 0.06 µg/mL ([4]; 48 h incubation): 26.3% | inhibition at 0.06 µg/mL ([4]; 72 h incubation): 0% | inhibition at 0.12 µg/mL ([4]; 48 h incubation): 39.8% | inhibition at 0.12 µg/mL ([4]; 72 h incubation): 24.6% | inhibition at 0.25 µg/mL ([4]; 48 h incubation): 65.2% | inhibition at 0.25 µg/mL ([4]; 72 h incubation): 49.8% | inhibition at 0.5 µg/mL ([4]; 48 h incubation): 100% | inhibition at 0.5 µg/mL ([4]; 72 h incubation): 90.2% | inhibition at 1 µg/mL ([4]; 48 h incubation): 100% | inhibition at 1 µg/mL ([4]; 72 h incubation): 100% | inhibition at 2 µg/mL ([4]; 48 h incubation): 100% | inhibition at 2 µg/mL ([4]; 72 h incubation): 100% | inhibition at 4 µg/mL ([4]; 48 h incubation): 100% | inhibition at 4 µg/mL ([4]; 72 h incubation): 100% | inhibition at 8 µg/mL ([4]; 48 h incubation): 100% | inhibition at 8 µg/mL ([4]; 72 h incubation): 100% | inhibition at 16 µg/mL ([4]; 48 h incubation): 100% | inhibition at 16 µg/mL ([4]; 72 h incubation): 100%
